Consider 2 compounds from patent publication US8889723B2, “Aminoalkyloxazole and aminoalkylthiazolecarboxylic acid amides as regeneration-promoting substances for sensory organs and post-mitotic tissues” (EMC microcollections GmbH, priority 2010, dated 2014).

“Also recorded” adds a separate entry of the source.

Data set [1] has as its system supportive cells of the organ of Corti. In words: In vitro organ culture model: BrdU incorporation after neomycin damage. In kind it is cell-based, mouse. The note with it: 5 μM, 4 days, after neomycin (1 mM) damage, FIG. 6. The source says:
To confirm the effects observed in the cell culture assay in the native organ, i.e., in situ in the complex cellular structure of the organ of Corti, use was made of a form of organ culture where the tissue to be cultivated, in the present case the entire inner ear of the mouse, was located in a rotating cylinder filled with culture medium (Hahn et al., 2008). Before the start of the experiment, the cochlea was opened basally and apically in the region of the scala tympani. In this manner, it was possible to minimize the effect of gravity and at the same time to achieve optimum gas and nutrient exchange between the tissue of the organ of Corti and the culture medium. Under these conditions, the explantate could be kept in culture for longer compared to a stationary culture.
(§1) After administration of the ototoxic aminoglycoside antibiotic neomycin (1 mM), ⅔of all sensory hair cells suffered cell death within 24 hours. Only in the apical regions of the cochlea, some sensory hair cells survived, the number of which declined further during the course of the experiment as a result of the initial damage. After removal of the neomycin from the medium, the remaining supportive cells could be cultivated further.
BrdU was then added to the culture medium simultaneously with the compounds (5 μM), and after 4 days the proliferation was quantified by BrdU incorporation.
(In general: Dividing cells build labelled thymidine or BrdU into new DNA.)

The test system of data set [2] is organ of Corti. In words: In vivo administration after acoustic trauma: regeneration of sensory hair cells (BrdU, myosin VI, DAPI, Sox2 labelling). The note with it: adult guinea pig, impulse noise damage, 200 μM in Alzet pump intracochlear over 6 weeks, FIG. 7. An excerpt: Acute acoustic damage resulting in a loss of sensory hair cells of the organ of Corti, in particular in the region of the outer sensory hair cells, was caused by impulse noise. The compound N-cyclohexyl-2-[1-amino-2-(1H-indol-3-yl)ethyl]α-azole-4-carboxylic acid amide (3) was then continuously administered locally from a miniosmotic pump (Alzet®), subcutaneously implanted, via choleostomy directly into the scala tympani of the cochlea. The dosage of the substance in the pump was correspondingly higher at 200 μM, taking into account an expected dilution effect in the perilymph.
Administration was over a period of 6 weeks, with a subsequent waiting interval of 2 weeks. In parallel, BrdU was administered via the drinking water or the miniosmotic pump to label proliferating cells in the organ of Corti.
After removal of the organ of Corti, immunohistochemical triple labelling with BrdU (cell division), myosin VI (sensory hair cells) and DAPI (staining of the nuclei) FIGS. 7A to 7E and also with Sox2 (pluripotent supportive cells) was carried out.

Data set [3] deals with differentiated otic epithelium islands from stem cells isolated from the postnatal organ of Corti. Kind of data set: In vitro cell culture assay: proportion of Sox2-positive cells (dedifferentiation). The note with it: screening assay, FIG. 3; p<0.05, n=10. The class given is cell-based, mouse. As to the method: (§2) First, starting with stem cells with otic development potential isolated from the postnatal organ of Corti of the mouse, typical cellular cluster “spheres” were grown in a suspension culture. Under culture conditions optimized compared to known processes (Oshima et al., 2007; Senn et al., 2007) in a DMEM/F12 medium (Dulbecco's Modified Eagle Medium) supplemented with B27 and N2, about 1600 solid spheres per organ of Corti could be generated from the stem cell culture with added FGF (fibroblast growth factor) and IGF (insulin-like growth factor) (FIG. 1H).
(§3) To this end, the cultivated otospheres were differentiated in a second step under adherent culture conditions on an ornithine/fibronectin surface to give monolayer epithelium islands relatively similar to the original sensory epithelium.
For screening, firstly the proportion of Sox2-positive cells in the in vitro culture was determined. Sox2 is a stem cell marker, which is also expressed during ontogenesis of the organ of Corti. It is thought to have an important role in the pluripotency of embryonal stem cells and during induction of pluripotent stem cells from differentiated cells (Takahashi and Yamanaka, 2006). Accordingly, Sox2 is an important marker, in particular in the context of an induced dedifferentiation/reprogramming of cells.

Data set [4] has the same test system. In words: In vitro cell culture assay: BrdU-positive cells (proliferation), screening and dose/activity analysis. The class given is cell-based, mouse. As to the method: as §2, §3
If the expression of stem cell markers induced by the compounds is in the end also associated with an increased proliferation of the cells in culture was checked by quantification of the BrdU-positive cells. During substance administration the culture was incubated for 5 h with the thymidine analog BrdU. During the S phase of the cell cycle, cell division results in incorporation of BrdU. If one of the substances stimulates cell division, this can be detected and visualized with an antibody directed against BrdU.
In a dose/activity analysis, the optimum concentration range in which this compound unfolds its maximum regeneration biological effect in the cell culture was determined.
To this end, incorporation of BrdU in the stem cell-based in vitro cell culture assay was determined at 4 concentrations between 0.3 μM and 10 μM in the culture medium. […] From a concentration of 3 μM, the saturation level of about 9% BrdU-positive cells is already reached (FIG. 5).

Data set [5] deals with sensory hair cells. In words: Ototoxic damage of sensory hair cells in organ culture. The note with it: 1 mM, within 24 hours. The class given is cell-based, mouse. As to the method: as §1

In the case of `N[C@@H](Cc1c[nH]c2ccccc12)c1nc(C(=O)NC2CCCCC2)co1` [Compound 3, N-cyclohexyl-2-[1-amino-2-(1H-indol-3-yl)ethyl]oxazole-4-carboxylic acid amide], the “BrdU incorporation into supportive cells (proliferation)” value in data set [1] is “BrdU incorporation could be demonstrated in the furthest laterally orientated Deiter's cells; also recorded: new cells in the sense of a regeneration by cell division of supportive cells have been formed; also recorded: BrdU was incorporated into laterally orientated Deiter's cells”; in data set [1] (listed as substance 33), “BrdU was incorporated into individual inner phalangeal cells and inner border cells”. Moreover, the “regeneration of sensory hair cells based on cell division (BrdU labelling)” value in data set [2] is “BrdU-labelled supportive cells and sensory hair cells were preferably demonstrated in the regions of the organ of Corti damaged by acoustic trauma; also recorded: regeneration of sensory hair cells on the basis of cell divisions can be induced”. The “proportion of Sox2-expressing cells compared with the differentiation control” value in data set [3] was “more than doubled; also recorded: significant positive results”. The “BrdU incorporation in dose/activity analysis” value in data set [4] (0.3 μM in culture medium, FIG. 5) is reported as “no significant effect”; in data set [4] (1 μM in culture medium, FIG. 5), “the mean was already elevated”. In data set [4] (adhesion culture, p<0.05, n=10, FIG. 5), the “BrdU incorporation when concentration increased from 0.3 μM to 3 μM” value is on record as “increased to a significantly higher level”. In addition, the “BrdU incorporation at concentrations higher than 3 μM” value in data set [4] (adhesion culture, up to 10 μM, FIG. 5) was “could not be increased any further”. Further, in data set [4] (from 3 μM in culture medium, FIG. 5), the “BrdU-positive cells, saturation level in dose/activity analysis” value was “about 9%”. Moreover, in data set [4] (screening assay, 5 h incubation with BrdU, FIG. 4), the “proportion of BrdU-positive cells (induced proliferation)” value was 4.8%. In addition, the “BrdU incorporation, result in words” value in data set [4] (screening assay, 5 h incubation with BrdU, p<0.05, n=10) is reported as “significant positive results”.

Turning to neomycin, the “proportion of all sensory hair cells that suffered cell death” value in data set [5] was “⅔”.
